For two compounds, susceptibility interpretation and IC50 results are on record in publication PMC7055873 (PLoS ONE, 2020).

For this test, the target named is H275Y mutant A(H1N1)pdm09 virus, neuraminidase (NA) (Influenza A virus, UniProt A0A0X9QTS2, H275Y).

Entries after “also recorded” stand apart in the source; their conditions may differ.

Take `CCOC(=O)C1=C[C@@H](OC(CC)CC)[C@H](NC(C)=O)[C@@H](N)C1` [Oseltamivir, oseltamivir]: the susceptibility interpretation entry is given as “highly reduced inhibition; also recorded: high reduced inhibition”.
For orientation: IC50 means the midpoint of a concentration-inhibition curve. As to `CCC(CC)[C@H](NC(C)=O)[C@@H]1[C@H](O)[C@@H](C(=O)O)C[C@H]1N=C(N)N` [Peramivir, peramivir], the IC50 was found to be 0.0219 µM and the susceptibility interpretation result is reported as “highly reduced inhibition; also recorded: high reduced inhibition”.
